Results published in patent publication US5140044A, “UCN-1028D derivatives” (Kyowa Hakko Kogyo Co., Ltd., priority 1989, dated 1992).
≈ marks a conversion by molar mass, not a printed value. Where two headings read alike, the source gives them in different places.

Columns and labels:
BALB 3T3/H-ras = assay: Anti-tumor activity: growth inhibition of BALB 3T3 cells transformed with H-ras (Giemsa staining); assay type: cell-based; conditions: for IC50: Mus musculus, BALB/3T3, 72 h, read-out: IC50 BALB 3T3/H-ras Inhibitory Activity
Experimental: The anti-tumor activity was determined using BALB 3T3 cells transformed with the carcinogenic gene H-ras (hereafter referred to as BALB 3T3/H-ras).
BALB 3T3/H-ras cells were suspended in a medium comprising DME medium (manufactured by Nissui Pharmaceutical Co., Ltd.) and 10% fetal calf serum (hereafter referred to as medium A) to a concentration of 3.0×10^4 /cells ml. The cell suspension thus prepared was put into wells of a 96-well microtiter plate in an amount of 0.1 ml per well. After culturing at 37° C. for 20 hours in a CO2 -incubator, 0.1 ml each of a test solution appropriately diluted with medium A was added to each well. The cells were further cultured at 37° C. for 72 hours in the CO2 -incubator and the culture supernatant was removed. After being washed once with physiological saline, the residue was treated with 0.1 ml of methanol for 10 minutes to fix the cells. Thereafter, the cells were stained with 0.1 ml of Giemsa staining solution [Giemsa staining stock solution (Merck Art 9204; manufactured by Merck Inc.) : physiological saline=1 : 10] for 5 minutes. After the staining solution was removed, the residue was washed once with 0.2 ml of water. The pigment was extracted with 0.2 ml of 0.1 N hydrochloric acid and the absorbance at 620 nm was measured with a microplate reader. By comparing the absorbance of untreated cells with those of the cells treated with the test compound at known concentrations, the concentration of the test compound at which the growth of the cells is inhibited by 50% (IC50) was calculated.

Protein Kinase C = assay: Protein kinase C inhibitory activity (method of Kikkawa et al.; crude enzyme from rat brain, Histone Type II S phosphorylation); assay type: biochemical; conditions: crude enzyme partially purified from rat brain; [γ-32P]ATP, 30° C., 3 minutes, pH 7.5
Experimental: Protein kinase C inhibitory activity
The protein kinase C inhibitory activity was measured by the method of Kikkawa, et al. [Journal of Biological Chemistry, 257, 13341 (1982)].
That is, 10 μl of a test solution containing a UCN-1028D derivative was added to 250 μl of a solution containing 2.5 μmoles of magnesium acetate, 50 μg of Histone Type II S (manufactured by Sigma Co., Ltd.), 20 μg of phosphatidyl serine, 0.8 μg of diolein, 25 nmoles of CaCl2, 5 μg of crude enzyme (partially purified from rat brain according to the method of Kikkawa, et al.) and 5 μmoles of Tris-hydrochloride buffer (pH 7.5), followed by incubation at 30° C. for 3 minutes. Then, phosphorylation was initiated by addition of 1.25 nmoles of [γ-^32 P]ATP (5 to 10×10^3 cpm/nmole), followed by incubation at 30° C. for 3 minutes The reaction was stopped by adding 25% trichloroacetic acid (TCA), and the reaction solution was filtered through a cellulose acetate membrane (pore size: 0.45 μm) (manufactured by Toyo Filter Paper Co., Ltd.). After the membrane was washed four times with 5% TCA, radioactivity remaining on the membrane was measured. As a control, the same procedure as above was repeated without addition of the test solution and radioactivity was likewise measured. The concentration of the test solution showing 50% inhibition as compared with the control was expressed as IC50.

[1] = growth inhibition, 72 hours, 37° C., Giemsa staining, absorbance at 620 nm

Row | Structure (SMILES) | IC50 (BALB 3T3/H-ras) [µg/mL] | IC50 Protein Kinase C Inhibitory Activity (Protein Kinase C) [µg/mL] | IC50 BALB 3T3/H-ras Inhibitory Activity (BALB 3T3/H-ras; [1]) [µg/mL] | IC50 (BALB 3T3/H-ras; [1]) [µg/mL]
1 | COc1ccc(C(=O)O[C@H](C)Cc2c(OC)c(=O)c3c(O)cc(OC)c4c5c(OC)cc(O)c6c(=O)c(OC)c(C[C@@H](C)OC(=O)c7ccc(OC)cc7)c(c2c34)c65)cc1 [Compound 27, 14,17-bis-O-p-methoxybenzoyl UCN-1028D] | 0.026 (≈ 0.0318 µM) | 0.05 (≈ 0.0611 µM) |  | 
2 | COC(=O)c1ccc(C(=O)O[C@H](C)Cc2c(OC)c(=O)c3c(O)cc(OC)c4c5c(OC)cc(O)c6c(=O)c(OC)c(C[C@@H](C)OC(=O)c7ccc(C(=O)OC)cc7)c(c2c34)c65)cc1 [Compound 28, 14,17-bis-O-p-methoxycarbonylbenzoyl UCN-1028D] | 0.068 (≈ 0.0777 µM) | 0.084 (≈ 0.096 µM) |  | 
3 | COc1c(C[C@@H](C)OC(=O)c2ccc(C)cc2)c2c3c(C[C@@H](C)OC(=O)c4ccc(C)cc4)c(OC)c(=O)c4c(O)cc(OC)c(c5c(OC)cc(O)c(c1=O)c52)c43 [Compound 29, 14,17-bis-O-p-methylbenzoyl UCN-1028D] | 0.022 (≈ 0.028 µM) | 0.06 (≈ 0.0763 µM) |  | 
4 | COc1c(C[C@@H](C)OC(=O)c2ccc([N+](=O)[O-])cc2)c2c3c(C[C@@H](C)OC(=O)c4ccc([N+](=O)[O-])cc4)c(OC)c(=O)c4c(O)cc(OC)c(c5c(OC)cc(O)c(c1=O)c52)c43 [Compound 30, 14,17-bis-O-p-nitrobenzoyl UCN-1028D] | 0.07 (≈ 0.0825 µM) | 0.11 (≈ 0.13 µM) |  | 
5 | COc1c(C[C@@H](C)OC(=O)c2cccc3ccccc23)c2c3c(C[C@@H](C)OC(=O)c4cccc5ccccc45)c(OC)c(=O)c4c(O)cc(OC)c(c5c(OC)cc(O)c(c1=O)c52)c43 [Compound 31, 14,17-di-O-1-naphthoyl UCN-1028D] | 1.5 (≈ 1.75 µM) | 0.19 (≈ 0.221 µM) |  | 
6 | COc1c(C[C@@H](C)OC(=O)c2ccc3ccccc3c2)c2c3c(C[C@@H](C)OC(=O)c4ccc5ccccc5c4)c(OC)c(=O)c4c(O)cc(OC)c(c5c(OC)cc(O)c(c1=O)c52)c43 [Compound 32, 14,17-di-O-2-naphthoyl UCN-1028D] | 1.2 (≈ 1.4 µM) | 0.1 (≈ 0.116 µM) |  | 
7 | COc1c(C[C@@H](C)OC(=O)c2ccncc2)c2c3c(C[C@@H](C)OC(=O)c4ccncc4)c(OC)c(=O)c4c(O)cc(OC)c(c5c(OC)cc(O)c(c1=O)c52)c43 [Compound 33, 14,17-di-O-isonicotinyl UCN-1028D] | 0.038 (≈ 0.05 µM) | 0.15 (≈ 0.197 µM) |  | 
8 | COc1c(C[C@@H](C)OC(=O)c2ccco2)c2c3c(C[C@@H](C)OC(=O)c4ccco4)c(OC)c(=O)c4c(O)cc(OC)c(c5c(OC)cc(O)c(c1=O)c52)c43 [Compound 35, 14,17-di-O-2-furoyl UCN-1028D] | 0.12 (≈ 0.162 µM) | 0.11 (≈ 0.149 µM) |  | 
9 | COC(=O)O[C@H](C)Cc1c(OC)c(=O)c2c(O)cc(OC)c3c4c(OC)cc(O)c5c(=O)c(OC)c(C[C@@H](C)OC(=O)OC)c(c1c23)c54 [Compound 36, 14,17-bis-O-methoxycarbonyl UCN-1028D] | 0.13 (≈ 0.195 µM) | 0.29 (≈ 0.435 µM) |  | 
10 | COc1c(C[C@@H](C)OC(=O)OCc2ccccc2)c2c3c(C[C@@H](C)OC(=O)OCc4ccccc4)c(OC)c(=O)c4c(O)cc(OC)c(c5c(OC)cc(O)c(c1=O)c52)c43 [Compound 37, 14,17-bis-O-benzyloxycarbonyl UCN-1028D] | 0.04 (≈ 0.0489 µM) | 0.052 (≈ 0.0635 µM) |  | 
11 | COc1c(C[C@@H](C)OC(=O)Oc2ccccc2)c2c3c(C[C@@H](C)OC(=O)Oc4ccccc4)c(OC)c(=O)c4c(O)cc(OC)c(c5c(OC)cc(O)c(c1=O)c52)c43 [Compound 38, 14,17-bis-O-phenyloxycarbonyl UCN-1028D] | 0.015 (≈ 0.019 µM) | 0.058 (≈ 0.0733 µM) |  | 
12 | COc1c(C[C@@H](C)OS(C)(=O)=O)c2c3c(C[C@@H](C)OS(C)(=O)=O)c(OC)c(=O)c4c(O)cc(OC)c(c5c(OC)cc(O)c(c1=O)c52)c43 [Compound 39, 14,17-bis-O-methanesulfonyl UCN-1028D] | 0.35 (≈ 0.495 µM) | 0.5 (≈ 0.707 µM) |  | 
13 | COc1c(C[C@@H](C)OS(=O)(=O)c2ccc(C)cc2)c2c3c(C[C@@H](C)OS(=O)(=O)c4ccc(C)cc4)c(OC)c(=O)c4c(O)cc(OC)c(c5c(OC)cc(O)c(c1=O)c52)c43 [Compound 40, 14,17-bis-O-p-toluenesulfonyl UCN-1028D] | 0.04 (≈ 0.0466 µM) | 0.066 (≈ 0.0768 µM) |  | 
14 | CCCNC(=O)O[C@H](C)Cc1c(OC)c(=O)c2c(O)cc(OC)c3c4c(OC)cc(O)c5c(=O)c(OC)c(C[C@@H](C)OC(=O)NCCC)c(c1c23)c54 [Compound 41, 14,17-bis-O-propylaminocarbonyl UCN-1028D] | 0.68 (≈ 0.943 µM) | 0.94 (≈ 1.3 µM) |  | 
15 | COc1c(C[C@@H](C)OC(=O)Nc2ccccc2)c2c3c(C[C@@H](C)OC(=O)Nc4ccccc4)c(OC)c(=O)c4c(O)cc(OC)c(c5c(OC)cc(O)c(c1=O)c52)c43 [Compound 42, 14,17-bis-O-phenylaminocarbonyl UCN-1028D] | 0.075 (≈ 0.0951 µM) | 0.021 (≈ 0.0266 µM) |  | 
16 | COc1c(C[C@@H](C)O)c2c3c(C[C@@H](C)O)c(OC)c(=O)c4c(O)cc(OC)c(c5c(OC)cc(O)c(c1=O)c52)c43 [Compound 43, UCN-1028 iso-D] |  | 0.74 (≈ 1.34 µM) | 1.0 (≈ 1.82 µM) | 
17 | COc1c(C[C@@H](C)OC(=O)c2ccccc2)c2c3c(C[C@@H](C)OC(=O)c4ccccc4)c(OC)c(=O)c4c(O)cc(OC)c(c5c(OC)cc(O)c(c1=O)c52)c43 [Compound 44, 14,17-di-O-benzoyl UCN-1028 iso-D] |  | 0.025 (≈ 0.0329 µM) |  | 0.52 (≈ 0.685 µM)
18 | COc1c(C[C@@H](C)O)c2c3c(C[C@@H](C)O)c(OC)c(=O)c4c(O)cc(OC)c(c5c(OC)cc(O)c(c1=O)c52)c43 [Compound 45, UCN-1028D] |  | 3.5 (≈ 6.36 µM) | 2.2 (≈ 4 µM) | 
